Test results published in paper PMC6179041, “The insight of in vitro and in silico studies on cholinesterase inhibitors from the roots of Cimicifuga dahurica (Turcz.) Maxim” (Journal of Enzyme Inhibition and Medicinal Chemistry, 2018).
Entries after “also recorded” stand apart in the source; their conditions may differ. Read-outs that look alike come from different tables or passages of the source.

Tests used:
[1] = target: T1, AChE (Electrophorus electricus, UniProt O42275); assay: biochemical; assay type: biochemical; settings: for inhibition at 100 µM: read-out: AChE inhibitory activity at 100 μM (%)
T1 construct: purchased Sigma-Aldrich C3389
T1 sequence (O42275 24-633): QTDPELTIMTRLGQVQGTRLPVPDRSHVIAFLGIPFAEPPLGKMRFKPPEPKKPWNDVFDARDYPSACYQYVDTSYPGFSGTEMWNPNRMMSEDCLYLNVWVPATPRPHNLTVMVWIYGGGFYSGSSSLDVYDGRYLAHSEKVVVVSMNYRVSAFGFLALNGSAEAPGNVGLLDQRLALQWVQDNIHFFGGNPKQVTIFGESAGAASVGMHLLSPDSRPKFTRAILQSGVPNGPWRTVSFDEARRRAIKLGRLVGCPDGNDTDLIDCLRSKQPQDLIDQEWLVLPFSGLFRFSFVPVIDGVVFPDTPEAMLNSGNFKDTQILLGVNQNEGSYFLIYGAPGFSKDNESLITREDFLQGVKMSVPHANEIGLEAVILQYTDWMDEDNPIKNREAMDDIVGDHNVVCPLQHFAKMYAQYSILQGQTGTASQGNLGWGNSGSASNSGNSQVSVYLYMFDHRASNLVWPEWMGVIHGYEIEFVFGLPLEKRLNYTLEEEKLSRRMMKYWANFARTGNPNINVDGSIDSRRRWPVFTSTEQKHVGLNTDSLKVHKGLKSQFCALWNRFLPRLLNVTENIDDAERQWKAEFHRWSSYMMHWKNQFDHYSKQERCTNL

[2] = target: BuChE (Equus caballus, UniProt P81908); assay: biochemical; assay type: biochemical; settings: for inhibition at 100 µM: read-out: BuChE inhibitory activity at 100 μM (%); for Binding mode (BuChE): Lineweaver-Burk plots
Sequence of BuChE (P81908 whole entry): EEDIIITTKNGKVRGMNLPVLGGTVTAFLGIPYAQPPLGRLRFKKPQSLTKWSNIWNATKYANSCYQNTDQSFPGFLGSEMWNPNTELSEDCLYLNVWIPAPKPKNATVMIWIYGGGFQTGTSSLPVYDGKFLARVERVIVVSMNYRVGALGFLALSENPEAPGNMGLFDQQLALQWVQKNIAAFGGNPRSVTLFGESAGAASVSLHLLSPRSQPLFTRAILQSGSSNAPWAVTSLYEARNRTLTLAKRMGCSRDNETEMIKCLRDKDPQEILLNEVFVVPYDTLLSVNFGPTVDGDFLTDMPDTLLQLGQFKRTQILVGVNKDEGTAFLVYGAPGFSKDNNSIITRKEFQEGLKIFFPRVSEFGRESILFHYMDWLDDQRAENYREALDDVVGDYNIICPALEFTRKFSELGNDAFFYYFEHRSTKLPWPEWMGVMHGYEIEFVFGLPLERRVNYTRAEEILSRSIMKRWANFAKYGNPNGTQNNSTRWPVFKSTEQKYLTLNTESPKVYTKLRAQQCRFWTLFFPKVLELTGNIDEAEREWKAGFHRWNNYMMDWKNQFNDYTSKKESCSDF

[3] = 100 μM compound, mean ± SEM, tested three times
[4] = mean ± SEM, tested three times, read-out: BuChE IC50
[5] = mean ± SEM, tested three times, read-out: AChE IC50
[6] = secondary replot, read-out: Ki (μM) on BuChE

| Compound | inhibition at 100 µM [1] | IC50 [2] | inhibition at 100 µM [2] | further results |
| --- | --- | --- | --- | --- |
| 3-O-β-D-xylopyranosyl-24S,25-dihydroxy-15-oxo-acta-(16R,23R)-16,23-monoxoside [Compound 17] |  |  |  | AChE inhibitory activity at 100 μM (%) [1, 3]: 47.1 ± 1.6%; BuChE inhibitory activity at 100 μM (%) [2, 3]: 55.4 ± 0.8%; IC50 [2, 4]: 84.1 ± 5.7 µM |
| COc1ccc(/C=C/C(=O)OCC(=O)c2ccc(O)c(O)c2)cc1O [Compound 1, cimiciphenone] |  |  |  | inhibition at 100 µM [1, 3]: 65.4 ± 0.9%; Binding mode (AChE) ([1]; Lineweaver-Burk plots): competitive inhibitor; also recorded: Competitive type (AChE); IC50 [1, 5]: 16.7 ± 1.9 µM; Ki ([1]; secondary replot): 16.2 ± 0.9 µM; inhibition at 100 µM [2, 3]: 13.6 ± 0.7% |
| COC(=O)/C=C/c1ccc(O)c(OC)c1 [Compound 2, ferulic acid methyl ester] |  |  |  | inhibition at 100 µM [1, 3]: 58 ± 0.6%; IC50 [1, 5]: 52.4 ± 3.7 µM; inhibition at 100 µM [2, 3]: 62.3 ± 0.3%; IC50 [2, 4]: 37.1 ± 1.5 µM |
| CC(C)=CC=C1C(=O)N(C)c2ccccc21 [Compound 3, (E)-3‐(3′-methyl-2′-butenylidene)-1-methyl-2-indolinone] |  |  |  | inhibition at 100 µM [1, 3]: 53.8 ± 0.1%; IC50 [1, 5]: 95.8 ± 5.1 µM; inhibition at 100 µM [2, 3]: 88.7 ± 1.3%; Binding mode (BuChE) [2]: noncompetitive mode; also recorded: Non-competitive type (BuChE); IC50 [2, 4]: 13.8 ± 1.2 µM; Ki [2, 6]: 4.9 ± 2.1 µM |
| CC(C)=CC=C1C(=O)Nc2ccccc21 [Compound 4, (E)-3‐(3′-methyl-2′-butenylidene)-2-indolinone] |  |  |  | inhibition at 100 µM [1, 3]: 61 ± 4.6%; IC50 [1, 5]: 48 ± 6.8 µM; inhibition at 100 µM [2, 3]: 93.1 ± 0.6%; Binding mode (BuChE) [2]: noncompetitive mode; also recorded: Non-competitive type (BuChE); IC50 [2, 4]: 6.5 ± 2.5 µM; Ki [2, 6]: 3.5 ± 1.5 µM |
| C[C@@H]1C[C@H]2O[C@]3(O[C@@H]2C(C)(C)O)[C@H]1[C@@]1(C)CC[C@@]24C[C@@]25CC[C@H](O)C(C)(C)[C@@H]5CC=C4[C@]1(C)[C@H]3O [Compound 5, 7,8-didehydrocimigenol] | 43.1 ± 5.6% | 60.9 ± 1.2 µM | 53.6 ± 0.9% |  |
| CC(=O)O[C@@H]([C@H]1C[C@@H](C)[C@H]2[C@@](O)(O1)[C@H](O)[C@@]1(C)C3=CC[C@H]4C(C)(C)[C@@H](O)CC[C@@]45C[C@@]35CC[C@]21C)C(C)(C)O [Compound 6, 24-epi-24-O-acetyl-7,8-didehydroshengmanol] | 53.7 ± 1.6% | 90.9 ± 6 µM | 57.3 ± 0.3% | IC50 [1]: 94.9 ± 3.5 µM |
| CC(=O)O[C@@H]1C[C@@]23C[C@@]24CC[C@H](O)C(C)(C)[C@@H]4CC=C3[C@]2(C)C[C@@H]3O[C@]4(C[C@@H](C)[C@@H]3[C@@]12C)O[C@H](O)[C@@]1(C)O[C@@H]41 [Compound 7, 25-triepoxy-12β-acetoxy-3β,26-dihydroxy-9,19-cyclolanost-7-ene] | 52 ± 0.1% |  | 41 ± 0.1% | IC50 [1]: 92.1 ± 2.2 µM |
| CC(=O)OC(C)(C)C1OC23OC1CC(C)C2C1(C)CCC24CC25CCC(O)C(C)(C)C5CC=C4C1(C)C3O (stereo not shown) [Compound 8, 25-O-acetyl-7,8-didehydrocimigenol] | 55.4 ± 2.6% |  | 18 ± 0.4% | IC50 [1]: 69.5 ± 1.2 µM |
| C=C(C)C1OC23OC1CC(C)C2C1(C)CCC24CC25CCC(O)C(C)(C)C5CC=C4C1(C)C3O (stereo not shown) [Compound 9, 25-anhydro-7,8-didehydrocimigenol] | 48.6 ± 0.6% | 35.1 ± 1.2 µM | 51 ± 1.9% |  |
| CC1CC2OC3(OC2C(C)(C)O)C1C1(C)CCC24CC25CCC(O)C(C)(C)C5CC=C4C1(C)C3O (stereo not drawn) [Compound 10, 24-epi-7,8-didehydrocimigenol] | 31.8 ± 0.5% |  | 41.1 ± 2.2% |  |
| CC(=O)OC(C)(C)[C@H]1O[C@@]23O[C@@H]1C[C@@H](C)[C@@H]2[C@@]1(C)CC[C@@]24C[C@@]25CC[C@H](O)C(C)(C)[C@@H]5CC[C@H]4[C@]1(C)[C@H]3O [Compound 11, 25-O-acetylcimigenol] | 15.8 ± 4.3% |  | 14 ± 2.6% |  |
| CC(=O)O[C@H]([C@H]1C[C@@H](C)[C@H]2[C@@](O)(O1)[C@H](O)[C@@]1(C)C3=CC[C@H]4C(C)(C)[C@@H](O)CC[C@@]45C[C@@]35CC[C@]21C)C(C)(C)O [Compound 12, 24-epi-24-O-acetyl-7,8-didehydroshengmanol] | 28 ± 4% |  | 18.6 ± 0.3% |  |
| C=C(C)[C@H]1O[C@@]23O[C@@H]1C[C@@H](C)[C@@H]2[C@@]1(C)CC[C@@]24C[C@@]25CC[C@H](O)C(C)(C)[C@@H]5CC=C4[C@]1(C)[C@H]3O [Compound 13, 25-anhydrocimigenol] | 42.8 ± 0.8% |  | 44.9 ± 1.1% |  |
| CC(=O)OC(C)(C)C1OC23OC1CC(C)C2C1(C)CCC24CC25CCC(OC2OCC(O)C(O)C2O)C(C)(C)C5CC=C4C1(C)C3O [Compound 14, 25-O-acetyl-7,8-didehydrocimigenol 3-O-β-D-xylopyranoside] | 24.9 ± 6.2% | 22.6 ± 0.4 µM | 55 ± 0.7% | Ki [2]: 10.7 ± 1.3 µM; Binding mode (BuChE) [2]: competing with substrate; also recorded: Competitive type (BuChE) |
| C=C(C)[C@H]1O[C@@]23O[C@@H]1C[C@@H](C)[C@@H]2[C@@]1(C)CC[C@@]24C[C@@]25CC[C@H](O[C@@H]2OC[C@@H](O)[C@H](O)[C@H]2O)C(C)(C)[C@@H]5CCC4[C@]1(C)[C@H]3O (stereo partly drawn) [Compound 15, 25-anhydrocimigenol-3-O-β-D-xylopyranoside] | 37.1 ± 0.5% | 33.3 ± 5 µM | 60.7 ± 0.6% |  |
| CC1CC2OC3(OC2C(C)(C)O)C1C1(C)CCC24CC25CCC(OC2OCC(O)C(O)C2O)C(C)(C)C5CC=C4C1(C)C3O [Compound 16, 24-epi-7,8-didehydrocimigenol 3-O-β-D-xylopyranoside] | 19 ± 2.5% | 31 ± 5.5 µM | 62 ± 0.8% |  |
| CC(=O)OC1C(OC2CCC34CC35CCC3(C)C6C(C)CC7OC6(OC7C(C)(C)O)C(O)C3(C)C5=CCC4C2(C)C)OCC(O)C1O (stereo not shown) [Compound 18, cimiricaside A] | 23.1 ± 6.8% | 51 ± 0.5 µM | 54.4 ± 1.3% |  |
| C=C(C)C1OC23OC1CC(C)C2C1(C)CCC24CC25CCC(OC2OCC(O)C(O)C2O)C(C)(C)C5CC=C4C1(C)C3O [Compound 19, 7,8-didehydro-25-anhydrocimigenol-3-O-β-D-xylopyranoside] | 21.5 ± 1.7% |  | 38.5 ± 0.1% |  |
